Results: patent US8940774B2, “Tris-Quaternary Ammonium Salts and Methods for Modulating Neuronal Nicotinic Acetylcholine Receptors” (University of Kentucky Research Foundation, priority 2005, dated 2015)

Key:
[1] = target: T1, Rat Striatal Nicotinic Receptors (Rattus norvegicus, UniProt P09483+P12390); assay: Inhibition of [3H]Nicotine (NIC) binding assay, rat striatal membranes; conditions: % inhibition at 100 nM concentration of analog, 3 nM [3H]NIC
T1 construct: from tissue; host or cells: rat striatal membranes
T1 sequence (P09483 31-630): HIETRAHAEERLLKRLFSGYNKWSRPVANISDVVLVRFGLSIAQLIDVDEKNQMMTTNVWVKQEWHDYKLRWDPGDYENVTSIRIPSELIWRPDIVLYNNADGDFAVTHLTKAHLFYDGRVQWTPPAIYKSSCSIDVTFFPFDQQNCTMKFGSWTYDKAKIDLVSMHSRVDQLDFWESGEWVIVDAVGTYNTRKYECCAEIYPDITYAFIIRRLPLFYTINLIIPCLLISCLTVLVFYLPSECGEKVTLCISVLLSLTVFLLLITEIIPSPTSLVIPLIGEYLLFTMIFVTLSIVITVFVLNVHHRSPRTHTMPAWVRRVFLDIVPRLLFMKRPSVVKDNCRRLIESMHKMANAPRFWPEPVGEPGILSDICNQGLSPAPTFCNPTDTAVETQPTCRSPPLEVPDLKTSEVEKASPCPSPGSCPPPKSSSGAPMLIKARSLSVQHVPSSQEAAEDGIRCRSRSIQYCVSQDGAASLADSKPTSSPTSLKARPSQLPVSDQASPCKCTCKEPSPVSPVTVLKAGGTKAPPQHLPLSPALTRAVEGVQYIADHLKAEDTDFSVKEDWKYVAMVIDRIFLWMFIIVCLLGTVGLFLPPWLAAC
T1 sequence (P12390 25-500): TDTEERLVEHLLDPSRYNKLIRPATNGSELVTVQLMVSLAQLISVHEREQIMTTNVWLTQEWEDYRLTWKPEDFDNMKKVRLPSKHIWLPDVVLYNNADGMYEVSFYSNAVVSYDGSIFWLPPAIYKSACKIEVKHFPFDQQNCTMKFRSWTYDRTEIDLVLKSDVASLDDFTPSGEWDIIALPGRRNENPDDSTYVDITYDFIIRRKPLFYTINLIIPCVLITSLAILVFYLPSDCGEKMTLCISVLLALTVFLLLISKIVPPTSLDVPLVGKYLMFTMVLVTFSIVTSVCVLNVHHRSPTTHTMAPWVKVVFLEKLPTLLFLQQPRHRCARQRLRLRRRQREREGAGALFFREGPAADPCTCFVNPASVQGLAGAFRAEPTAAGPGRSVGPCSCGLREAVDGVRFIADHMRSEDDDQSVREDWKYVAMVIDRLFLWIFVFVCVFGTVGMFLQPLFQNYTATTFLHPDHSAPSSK
Description: Striata from two rats were dissected, pooled, and homogenized with a Tekmar polytron in 10 vol of ice-cold modified Krebs-HEPES buffer (20 mM HEPES, 118 mM NaCl, 4.8 mM, KCl, 2.5 mM CaCl2, 1.2 mM MgSO4, adjusted to pH 7.5). The homogenates were incubated at 37° C. for 5 minutes and centrifuged at 15,000 g for 20 minutes. The pellet was resuspended in 10 volumes of ice-cold MilliQ water, incubated for 5 minutes at 37° C., and centrifuged at 15,000 g for 20 minutes. The second pellet was then resuspended in 10 volumes of fresh ice-cold 10% Krebs-HEPES buffer, incubated at 37° C., and centrifuged at 15,000 g for 20 minutes. The latter sequence of resuspension, incubation and centrifugation was repeated. The pellet was frozen under fresh 10% Krebs-HEPES buffer and stored at −40° C. until assay. Upon assay, the pellet was resuspended in Krebs-HEPES buffer, incubated at 37° C. for 5 minutes, and centrifuged at 15,000 g for 20 minutes. The final pellet was resuspended in 3.6 mL ice-cold MilliQ water which provided for approximately 200 μg protein per 100 μL aliquot. Competition assays were performed in duplicate in a final volume of 200 μL Krebs-HEPES buffer containing […] Tris buffer (pH 7.5 at 4° C.). Reactions were initiated by addition of 100 μL of membrane suspension to 3 nM [^3H]NIC (50 μL) and one of at least nine concentrations of analog (50 μL). After a 90 minute incubation at 4° C., reactions were terminated by dilution of the samples with 3 mL of ice-cold Krebs-HEPES buffer followed immediately by filtration through Whatman GF/B glass fiber filters (presoaked in 0.5% polyethyleneimine) using a Brandel Cell Harvester. Filters were rinsed three times with 3 mL of ice-cold Krebs-HEPES buffer, transferred to scintillation vials, and 5 mL scintillation cocktail (Research Products international Corp., Mt. Prospect, Ill.) added. Nonspecific binding determined in triplicate was defined as binding in the presence of 10 μM NIC. Binding parameters were determined using the weighted, least squares non-linear regression. The tris-quaternary ammonium salts were evaluated for their ability to displace [^3H]NIC binding from rat striatal membranes.
(§1) Data are % inhibition at 100 nM concentration of analog for at least 1-3 independent experiments. Specific binding in the [^3H]NIC binding assay is calculated at the difference between the total binding of [^3H]NIC and nonspecific binding in the presence of 10 μM cold nicotine. Specific binding for the [^3H]MLA binding assay is calculated as the difference between the total binding of 2.5 nM [^3H]MLA to the receptors alone and its nonspecific binding in the presence of 1 μM cold MLA. Analog-induced inhibition of nicotine-evoked [^3H]DA release is calculated as a percent of that in the absence of analog.

[2] = target: T2, α7-type neuronal nicotinic acetylcholine receptors (Rattus norvegicus, UniProt Q05941); assay: Inhibition of [3H]Methyllycaconitine (MLA) binding assay, rat brain membranes; conditions: % inhibition at 100 nM concentration of analog; rat brain membranes; 2.5 nM [3H]MLA; read-out: Inhibition of [3H]MLA binding
T2 construct: from tissue; host or cells: rat brain membranes (whole brain without cortex, striatum and cerebellum)
T2 sequence (Q05941 23-502): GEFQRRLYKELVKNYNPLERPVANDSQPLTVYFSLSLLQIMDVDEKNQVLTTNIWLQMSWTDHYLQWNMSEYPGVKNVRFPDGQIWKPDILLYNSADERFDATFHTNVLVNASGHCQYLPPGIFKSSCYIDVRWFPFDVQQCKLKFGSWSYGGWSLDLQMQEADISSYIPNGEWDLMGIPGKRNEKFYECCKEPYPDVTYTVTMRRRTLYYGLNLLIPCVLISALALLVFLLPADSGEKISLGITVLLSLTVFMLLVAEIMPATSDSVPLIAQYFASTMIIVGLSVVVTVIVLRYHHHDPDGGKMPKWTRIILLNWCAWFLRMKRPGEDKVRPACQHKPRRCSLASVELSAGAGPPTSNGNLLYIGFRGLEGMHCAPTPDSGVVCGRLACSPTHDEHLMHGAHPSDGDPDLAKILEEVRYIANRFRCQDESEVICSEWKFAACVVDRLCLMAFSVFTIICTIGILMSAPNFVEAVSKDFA
Description: Rat brain was dissected into the whole brain tissue without cortex, striatum and cerebellum and was frozen in liquid nitrogen and stored at −70° C. until use. The brain tissue was homogenized with a Tekmar Polytron (setting 40) in 20 volumes of ice-cold hypotonic buffer (2 mM HEPES, 14.4 mM NaCl, 0.15 mM KCl, 0.2 mM CaCl2 and 0.1 mM MgSO4, pH=7.5). The homogenate was incubated at 37° C. for 10 minutes and centrifuged at 25,000 g for 15 minutes at […] The pellet was washed 3 times more by resuspension in 20 volumes of the same buffer and centrifugation at the above parameters. The final pellet was stored at −20° C. under 4.6 mL of the incubation buffer and was suspended just before the incubation with radioligand.
The binding of [^3H]MLA to probe α7-type neuronal nicotinic acetylcholine receptors was measured using a modification of the method of Davies at al., “Characterisation of the binding of [^3H]methyllycaconitine (MLA): a radioligand for labelling α7-type neuronal nicotinic acetylcholine receptors,” Neuropharmacology, 38, 679-690 (1999). [^3H]MLA (25.4 Ci/mmol) was purchased from Tocris Cookson Ltd., Bristol, U.K. Binding was performed in duplicate, in a final volume of 250 μL of the incubation medium, containing 20 mM HEPES, 144 mM NaCl, 1.5 mM KCl, 2 mM CaCl2, 1 mM MgSO4 and 0.05% BSA, pH=7.5. Reaction was initiated by the addition of 100 μL of membrane suspension to the samples containing a desired concentration of test compounds and […] [^3H]MLA (final concentration) and incubated for 2 hours it room temperature. Total binding was measured in the absence of unlabelled ligand, and nonspecific binding was determined by the presence of 1 μM unlabelled MLA. The binding reaction was terminated by dilution of samples with 3 mL of ice-cold incubation buffer followed by immediate filtration through glass fiber filters (S&S, grade #32, presoaked in 0.5% polyethylenimine) using a Brandel harvester system. Filters were rinsed three times with 3 mL of ice-cold buffer, transferred to scintillation vials and 4 mL of scintillation cocktail was added. Protein was measured using the Bradford dye-binding procedure with bovine serum albumin as the standard.
The tris-quaternary ammonium salts were evaluated for their ability to displace [^3H]MLA binding from rat brain membranes.
as §1

Structure (SMILES) | inhibition at 0.1 µM [1] | inhibition at 0.1 µM [2]
CCCCc1ccc[n+](CCCC#Cc2cc(C#CCCC[n+]3cccc(CCCC)c3)cc(C#CCCC[n+]3cccc(CCCC)c3)c2)c1 [GZ551A, 1,3,5-tris-[5-(3-butyl-pyridinium)-pent-1-ynyl]-benzene tribromide] | 6.8 ± 2% | 30 ± 2%
CN1CCC[C@H]1c1ccc[n+](CCCC#Cc2cc(C#CCCC[n+]3cccc([C@@H]4CCCN4C)c3)cc(C#CCCC[n+]3cccc([C@@H]4CCCN4C)c3)c2)c1 [GZ551B, 1,3,5-tris-{5-[3-(1-methyl-2-S-pyrrolidinyl)pyridinium]-pent-1-ynyl}-benzene tribromide] | 44 ± 3.1% | 4.2 ± 2.2%
CN1CCC[C@H]1c1ccc[n+](CCCCCc2cc(CCCCC[n+]3cccc([C@@H]4CCCN4C)c3)cc(CCCCC[n+]3cccc([C@@H]4CCCN4C)c3)c2)c1 [GZ558C, 1,3,5-tris-{5-[3-(1-methyl-2-S-pyrrolidinyl)pyridinium]-pentyl}-benzene tribromide] | 81 ± 2.3% | 7.9 ± 7.1%
